Measurements as given in patent EP2135611A1, “Pregn-5-en-20-yne-3,7,17-triol derivatives for use in therapy” (Hollis-Eden Pharmaceuticals Inc., priority 2001, dated 2002).

Columns and labels:
Distal colitis [1] = assay: TNBS-induced distal colitis; format: in vivo, male Sprague Dawley rats; details: for frequency of moderate to severe lesions and their severity compared with negative control (vehicle) and reference control: based on occurrence at multiple colonic levels
Procedure: In another protocol formula 1 compounds were used in a similar animal model. Groups of 10 male Sprague Dawley rats (250-300 grams) were fasted for 24 hours before 2,4,6-trinitrobenzene sulfonic acid (TNBS) or saline challenge. This model presents a severe challenge to the animal's immune system. On Day 0, the rats were lightly anesthetized and a catheter inserted rectally into the colon such that the tip was 8 cm proximal to the anus. Distal colitis was induced by intra-colonic instillation of 0.5 mL of an ethanolic solution of TNBS (60 mg/mL ethanol 50% in water). The test substance, 7-oxodehydroepiandrosterone 20 mg/mL in vehicle or vehicle control was administered by subcutaneous injection (0.1 mL/injection) once a day for 6 days, the first dose being given 30 minutes after TNBS challenge. Sulfasalazine (30 mg/mL in 2% Tween 80 in distilled water) or vehicle control was administered orally (PO) once a day (10mL/kg/day) for 7 days, the first two doses beginning 24 hours and 2 hours before DNBS challenge. Signs of diarrhea were recorded daily by examining the anal area. Animals were fasted for 24 hours prior to sacrifice on day 14 and the colon was removed and weighed. After gross observations of colonic tissues, 3 samples were taken from regions approximately 1, 3, and 8 cm proximal to the anus. If gross ulcers or inflammation were present, at least one sample was taken from the affected region. Before removal of the colon, signs of adhesion between the colon and other organs were recorded. […] Body weight, colon-to-body-weight ratio, and damage scores were assessed. Visible damage was scored on a 1-5 scale as follows: 0 = No damage; 1 = Localized hyperemia but no ulcers; 2= linear ulcers with no significant inflammation; 3 = Linear ulcers with inflammation at one site; 4 = Two or more sites of ulceration and/or inflammation; 5 = Two or more major sites of ulceration and inflammation or one major site of ulceration and inflammation extending more than 1 cm along the length of the colon. […]

Distal colitis [2] = assay: DNBS-induced distal colitis (inflammatory bowel disease model); format: in vivo, male Wistar rats; details: for Adhesions between the colon and other organs / Colonic ulceration: observed at sacrifice day 7 or day 8, dosing as for each substance; for diarrhea: recorded daily, dosing as for each substance (AET: 2 mg); for Moderate acute inflammation, number of animals / Severe acute inflammation, number of animals: measured 7 days after DNBS challenge; for Moderate acute inflammation, number of animals / Severe acute inflammation, number of animals / Severe chronic inflammation, number of animals: groups of 10; for Severe chronic inflammation, number of animals: measured 14 days after DNBS challenge
[3] = test system: Experimental allergic encephalomyelitis (EAE); assay: Experimental allergic encephalomyelitis induced with PLP-139-151 peptide/CFA; format: in vivo, Female SJL mice; details: for onset of EAE: 3.0 mg s.c. daily for 33 days starting 7 days before peptide; for peak clinical score: reduced from 5.2 ± 0.6; for PLP-139-151 specific T cell proliferation responses: T cells from treated mice; for numbers of TNF-α producing cells in the CNS: treated mice
Procedure: Example 50. Treatment of neurodegenerative conditions. Experimental allergic encephalomyelitis (EAE), is demyelinating disease of the central nervous system with many pathological and clinical similarities with multiple sclerosis (MS). EAE is thus a recognized animal model for human autoimmune conditions such as MS. Formula 1 compounds 16α-fluoroandrost-5-ene-17-one, 3β,7β,17β,-trihydroxyandrost-5-ene and 16α-bromoepiandrosterone were tested for their capacity to delay the onset of EAE or to reduce its symptoms. Female SJL mice (5 animals per group) were immunized with 150 to 200 µg of PLP-139-151 peptide/CFA to induce EAE. Starting 7 days before injection of the peptide, the animals were given daily injections (s.c.) of the compounds (3.0 mg) in 0.1 mL vehicle, or vehicle alone for 33 days. The vehicle consisted of a suspension of the formula 1 compound in saline and carboxymethylcellulose. […] A lower dose (0.3 mg/mouse) or other routes (p.o.) of administration had less effect. […] These compounds limited the production of autoimmune Th-1 associated cytokines, which is consistent with restoration of a more normal Th-1/Th-2 immune balance and/or with reduction of inflammation in this model.

[4] = test system: delayed type hypersensitivity (DTH); assay: Delayed type hypersensitivity to oxazolone (ear thickness); format: in vivo, female BALB/cByJ mice; details: for differential ear thickness: 24 hours after oxazolone challenge, vehicle alone 0.225 mm
[5] = s.c. 20 mg/mL formulation once a day, first dose 30 minutes after DNBS, relative to vehicle-treated group / controls
[6] = day 7 (acute inflammation) after DNBS challenge
[7] = day 14 after DNBS challenge (chronic inflammation)

C[C@]12CC[C@H](O)CC1=CC(=O)[C@@H]1[C@@H]2CC[C@]2(C)C(=O)CC[C@@H]12 [7-oxodehydroepiandrosterone, 3β-hydroxyandrost-5-ene-7,17-dione]
effect on inflammation (histopathological data) (Distal colitis [1]; 20 mg/mL, 0.1 mL s.c. once a day for 6 days): exacerbated the inflammation | decrease of net colon-to-body weight ratio (Distal colitis [2]; 0.1 mL s.c. of 2 mg/mL formulation once a day for 6 days, first dose 30 minutes after DNBS, relative to vehicle-treated group): 19% | Adhesions between the colon and other organs (Distal colitis [2]): absent in all three tested animals | Colonic ulceration (Distal colitis [2]): 1/3 | diarrhea (Distal colitis [2]): All animals had diarrhea | decrease of net colon-to-body weight ratio (Distal colitis [2]; [5]): 14%

C[C@]12CCCCC1=CC[C@@H]1[C@@H]2CC[C@]2(C)C(=O)[C@H](F)C[C@@H]12 [16α-fluoroandrost-5-ene-17-one]
reduction of cumulative disease index ([3]; 3.0 mg s.c. daily for 33 days): > 60% | relapses ([3]; 3.0 mg s.c. daily for 33 days): prevented or significantly attenuated | onset of EAE [3]: significantly delayed | peak clinical score ([3]; 3.0 mg s.c. daily for 33 days): 2.8 ± 1.8 | PLP-139-151 specific T cell proliferation responses [3]: significantly reduced | numbers of TNF-α producing cells in the CNS [3]: reduced numbers

C[C@]12CC[C@H]3[C@@H]([C@@H](O)C=C4C[C@@H](O)CC[C@@]43C)[C@@H]1CC[C@@H]2O [AET, 3β,7β,17β-trihydroxyandrost-5-ene]
enhancement of the DTH response ([4]; s.c. 2 mg/day daily for 8 days, first dose 24 hours before sensitization, last dose 24 hours prior to challenge): 23% | reduction in the DTH response ([4]; s.c. 2 mg/day, administered 24 hours before challenge or at challenge): 22-24% | reduction of cumulative disease index ([3]; 3.0 mg s.c. daily for 33 days): > 60% | relapses ([3]; 3.0 mg s.c. daily for 33 days): prevented or significantly attenuated | onset of EAE [3]: significantly delayed | peak clinical score ([3]; 3.0 mg s.c. daily for 33 days): 2.8 ± 1.8 | PLP-139-151 specific T cell proliferation responses [3]: significantly reduced | numbers of TNF-α producing cells in the CNS [3]: reduced numbers | animals with colonic ulcerations relative to untreated animals (Distal colitis [2]; 2 mg, N=9, pooled data from two studies): 33% | animals showing ulcers (chronic ulceration) (Distal colitis [2]; 14 days after challenge, initiation of treatment delayed until 2 days after DNBS challenge): 5 of 10 | severe ulceration (Distal colitis [2]; [6]): 2 of 10 | severe ulceration (Distal colitis [2]; [7]): 1 of 10 | net colon-to-body weight ratio, ulcers and diarrhea (Distal colitis [2]; four subsequent studies): variably reduced | Moderate acute inflammation, number of animals (Distal colitis [2]): 6 animals | Severe acute inflammation, number of animals (Distal colitis [2]): 4 animals | Severe chronic inflammation, number of animals (Distal colitis [2]): 3 animals | Adhesions between the colon and other organs (Distal colitis [2]): absent | diarrhea (Distal colitis [2]): no diarrhea | decrease of net colon-to-body weight ratio (Distal colitis [2]; s.c. 0.2 mg/day for 5 or 6 days, first dose 30 minutes post-DNBS, relative to controls): 15% | decrease of net colon-to-body weight ratio (Distal colitis [2]; s.c. 2.0 mg/day for 5 or 6 days, first dose 30 minutes post-DNBS, relative to controls): 21%

C[C@]12CC[C@H](O)C[C@@H]1CC[C@@H]1[C@@H]2CC[C@]2(C)C(=O)[C@H](Br)C[C@@H]12 [BrEA, 16α-bromo-3β-hydroxy-5α-androstane-17-one]
frequency of moderate to severe lesions and their severity compared with negative control (vehicle) and reference control (Distal colitis [1]): appeared to be similar | effect on EAE ([3]; 3.0 mg s.c. daily for 33 days): not significant | decrease of net colon-to-body weight ratio (Distal colitis [2]; s.c. 100 mg/mL formulation, relative to controls): 21%

O=P1(N(CCCl)CCCl)NCCCO1 (centres unmarked) [cyclophosphamide, reference compound]
differential ear thickness [4]: 0.092 mm

C[C@]12CC[C@H](O)CC1=CC[C@@H]1[C@@H]2CC[C@]2(C)C(=O)CC[C@@H]12 [dehydroepiandrosterone, reference compound]
frequency of moderate to severe lesions and their severity compared with negative control (vehicle) and reference control (Distal colitis [1]): appeared to be similar | severe ulceration (Distal colitis [2]; [6]): 10 of 10 | severe ulceration (Distal colitis [2]; [7]): 0 of 10 | Moderate acute inflammation, number of animals (Distal colitis [2]): 0 animals | Severe acute inflammation, number of animals (Distal colitis [2]): 10 animals | Severe chronic inflammation, number of animals (Distal colitis [2]): 3 animals | decrease of net colon-to-body weight ratio (Distal colitis [2]; [5]): 3%

C[C@@H]1C[C@H]2[C@@H]3CCC4=CC(=O)C=C[C@]4(C)[C@@]3(F)[C@@H](O)C[C@]2(C)[C@@]1(O)C(=O)CO [dexamethasone, reference compound]
differential ear thickness [4]: 0.144 mm

O=C(O)c1cc(/N=N/c2ccc(S(=O)(=O)Nc3ccccn3)cc2)ccc1O [sulfasalazine, reference compound]
change in net colon-to-body weight (BW) ratio (Distal colitis [2]; PO 30 mg/mL, 10 mL/kg/day once a day for 7 days, relative to EE-1 treated group): -33% | severe ulceration (Distal colitis [2]; [6]): 3 of 10 | severe ulceration (Distal colitis [2]; [7]): 4 of 10 | Moderate acute inflammation, number of animals (Distal colitis [2]): 6 animals | Severe acute inflammation, number of animals (Distal colitis [2]): 3 animals | Severe chronic inflammation, number of animals (Distal colitis [2]): 2 animals | Adhesions between the colon and other organs (Distal colitis [2]): no animals | Colonic ulceration (Distal colitis [2]): no animals | diarrhea (Distal colitis [2]): all animals
